Experimental data reported in the NIST ThermoML archive (doi:10.1021/je301123j).

Assay: xn = mol fraction of the nth substance listed
Conditions: for surface tension liquid-gas: Ring tensiometer; for mass density / speed of sound / viscosity: 100 kPa, Liquid

CCN1CCCC1=O [1-ethyl-2-pyrrolidinone] + NCCO
Conditions	mass density [kg/m3]	speed of sound [m/s]	surface tension liquid-gas [mN/m]	viscosity [mPa·s]
293.15 K, x1 = 0.1	1014.83	1694.5	44.9	16.56
293.15 K, x1 = 0.2002	1012.06	1652.1	42.4	11.56
293.15 K, x1 = 0.2999	1008.77	1621.1	41.1	8.317
293.15 K, x1 = 0.4002	1006.13	1596	39.8	6.255
293.15 K, x1 = 0.4999	1002.53	1575.8	39.1	4.742
293.15 K, x1 = 0.5996	999.47	1554.4	38.3	3.762
293.15 K, x1 = 0.7002	998.41	1540.5	37.7	3.101
293.15 K, x1 = 0.7999	997.76	1529.1	37.3	2.641
293.15 K, x1 = 0.8997	997.35	1519.5	37.1	2.325
293.15 K, x1 = 1	997.91	1513.2	36.5	2.132
303.15 K, x1 = 0.1	1006.71	1661.1	43.7	10.66
303.15 K, x1 = 0.2002	1003.8	1617	41.2	7.68
303.15 K, x1 = 0.2999	1000.38	1582.4	39.8	6.051
303.15 K, x1 = 0.4002	997.65	1560.4	38.5	4.76
303.15 K, x1 = 0.4999	993.9	1539.5	37.6	3.526
303.15 K, x1 = 0.5996	990.78	1517.3	36.7	2.912
303.15 K, x1 = 0.7002	989.74	1503.1	36.1	2.446
303.15 K, x1 = 0.7999	989.12	1491.9	36.2	2.147
303.15 K, x1 = 0.8997	988.75	1481.7	35.7	1.918
303.15 K, x1 = 1	989.34	1475	35.2	1.777
313.15 K, x1 = 0.1	998.53	1628	42.7	7.237
313.15 K, x1 = 0.2002	995.42	1582.8	40.2	5.477
313.15 K, x1 = 0.2999	991.88	1552.5	38.7	4.386
313.15 K, x1 = 0.4002	989.14	1527.9	37	3.553
313.15 K, x1 = 0.4999	985.23	1502.9	35.9	2.733
313.15 K, x1 = 0.5996	982.08	1480.5	34.9	2.322
313.15 K, x1 = 0.7002	981.06	1466.1	34.5	1.99
313.15 K, x1 = 0.7999	980.46	1454.9	35	1.775
313.15 K, x1 = 0.8997	980.14	1444.2	34.6	1.616
313.15 K, x1 = 1	980.76	1437.6	34.2	1.515
323.15 K, x1 = 0.1	990.31	1594.2	–	5.201
323.15 K, x1 = 0.2002	986.95	1549.2	–	4.011
323.15 K, x1 = 0.2999	983.29	1517.9	–	3.311
323.15 K, x1 = 0.4002	980.53	1493.2	–	2.734
323.15 K, x1 = 0.4999	976.53	1467	–	2.183
323.15 K, x1 = 0.5996	973.35	1443.8	–	1.884
323.15 K, x1 = 0.7002	972.34	1429.5	–	1.659
323.15 K, x1 = 0.7999	971.78	1418	–	1.503
323.15 K, x1 = 0.8997	971.5	1407.6	–	1.384
323.15 K, x1 = 1	972.16	1400.6	–	1.31
